Assays:
kochia = assay: Test C pre-/postemergence test; type: in vivo, Kochia scoparia
Excerpt: (§1) Seeds of plant species selected from blackgrass (Alopecurus myosuroides), downy brome (Bromus tectorum), green foxtail (Setaria viridis), Italian ryegrass (Lolium multiflorum), wheat (Triticum aestivum), wild oat (Avena fatua), catchweed bedstraw (Galium aparine), Russian thistle (Salsola kali), […] (Cynodon dactylon), Surinam grass (Brachiaria decumbens), cocklebur (Xanthium strumarium), corn (Zea mays), crabgrass (Digitaria sanguinalis), woolly cupgrass (Eriochloa villosa), giant foxtail (Setaria faberii), Goosegrass (Eleusin indica), johnsongrass (Sorghum halepense), kochia (Kochia scoparia), lambsquarters (Chenopodium album), morningglory (Ipomoea coccinea), eastern black nightshade (Solanum ptycanthum), yellow nutsedge (Cyperus esculentus), pigweed (Amaranthus retroflexus), common ragweed (Ambrosia elation), soybean (Glycine max), common (oilseed) sunflower (Helianthus annuus), and velvetleaf (Abutilon theophrasti) were planted and treated preemergence with test chemicals formulated in a non-phytotoxic solvent mixture which included a surfactant. At the same time, plants selected from these crop and weed species and also winter barley (Hordeum vulgare), canarygrass (Phalaris minor), and chickweed (Stellaria media) were treated with postemergence applications of some of the test chemicals formulated in the same manner. Plants ranged in height from 2 to 18 cm (1- to 4-leaf stage) for postemergence treatments. […] At time of treatment, test pots were flooded to 3 cm above the soil surface, treated by application of test compounds directly to the paddy water, and then maintained at that water depth for the duration of the test. […] A dash (-) response means no test result.

yellow nutsedge = assay: Test C pre-/postemergence test; type: in vivo, Cyperus esculentus
Excerpt: as §1

crabgrass = assay: Test A pre-/postemergence greenhouse test; type: in vivo, Digitaria sanguinalis; conditions: for Crabgrass, Large plant response rating: 0 to 100 scale; for Plant response rating, Crabgrass, Large: 0 to 100 scale where 0 is no effect and 100 is complete control
How it was run: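 Visual injury ratings, made relative to untreated controls roughly ten days after treatment, cover both preemergence and postemergence application. Compounds in a surfactant-containing non-phytotoxic solvent were sprayed onto the soil surface after sowing and, simultaneously, onto young plants at the one- to two-leaf stage.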

common ragweed = assay: Test C pre-/postemergence test; type: in vivo, Ambrosia elation
Excerpt: as §1

[1] = 31 g ai/ha, Preemergence, scale 0 to 100
[2] = 62 g ai/ha, preemergence, scale 0 (no effect) to 100 (complete control)
[3] = preemergence, 125 g ai/ha, scale 0 (no effect) to 100 (complete control)
[4] = Postemergence, 125 g ai/ha, 0 is no effect, 100 is complete control
[5] = Postemergence, 500 g ai/ha, 0 is no effect, 100 is complete control
[6] = Preemergence, 125 g ai/ha, 0 no effect, 100 complete control
[7] = 62 g ai/ha, Preemergence, scale 0 to 100
[8] = 125 g ai/ha, preemergence, scale 0 (no effect) to 100 (complete control)
[9] = Postemergence, 62 g ai/ha, scale 0 to 100, 0 no effect, 100 complete control
[10] = Postemergence, 125 g ai/ha, scale 0 to 100, 0 no effect, 100 complete control
[11] = Postemergence, 250 g ai/ha, scale 0 to 100, 0 no effect, 100 complete control
[12] = Preemergence, 31 g ai/ha, scale 0 to 100 (0 no effect, 100 complete control)
[13] = preemergence, 250 g ai/ha, scale 0 (no effect) to 100 (complete control)

| SMILES | Kochia plant response rating (kochia; [1]) | Plant response rating (0 to 100), Kochia (kochia; Preemergence, 250 g ai/ha) | Kochia plant response rating (kochia; [3]) | Nutsedge, Yellow plant response rating (yellow nutsedge; [1]) | Nutsedge, Yellow plant response rating (yellow nutsedge; [2]) | Plant response rating (0 to 100), Nutsedge, Yellow (yellow nutsedge; Preemergence, 250 g ai/ha) | Nutsedge, Yellow plant response rating (yellow nutsedge; [3]) | Crabgrass, Large plant response rating (crabgrass; [4]) | Crabgrass, Large plant response rating (crabgrass; [5]) | Crabgrass, Large plant response rating (crabgrass; [6]) | Plant response rating, Crabgrass, Large (crabgrass; Preemergence, 500 g ai/ha) | Ragweed plant response rating (common ragweed; [1]) | Ragweed plant response rating (common ragweed; [2]) | Ragweed plant response rating (common ragweed; [3]) | Plant response rating (0 to 100), Ragweed (common ragweed; Preemergence, 250 g ai/ha) | Nutsedge, Yellow plant response rating (yellow nutsedge; [7]) | Nutsedge, Yellow plant response rating (yellow nutsedge; [8]) | Plant response rating, Nutsedge, Yellow (yellow nutsedge; [12]) | Nutsedge, Yellow plant response rating (yellow nutsedge; [13]) | Ragweed plant response rating (common ragweed; [7]) | also measured |
| --- | --- | --- | --- | --- | --- | --- | --- | --- | --- | --- | --- | --- | --- | --- | --- | --- | --- | --- | --- | --- | --- |
| Cn1nc(C(F)(F)F)c(C[S+]([O-])c2ccc(Br)c[n+]2[O-])c1OC(F)F (racemic) [Compound 16] | 20 | 100 | 100 | 60 | 80 | 100 | 85 | 70 | 90 | 80 | 100 | 10 | 45 | 100 | – | – | – | – | – | – | Kochia plant response rating (kochia; [2]): 100 |
| Cn1nc(C(F)(F)F)c(CS(=O)(=O)c2cccc[n+]2[O-])c1Cl [Compound 9] | 0 | 100 | 100 | 40 | – | 100 | 100 | 80 | 90 | 100 | 100 | 45 | – | 90 | 100 | – | – | – | – | – | – |
| [O-][n+]1cc(Cl)ccc1[S+]([O-])Cc1c(C(F)(F)F)nn(CC(F)(F)F)c1Cl (centres unmarked) [Compound 47] | – | – | – | – | – | – | – | – | 90 | 80 | 100 | – | – | – | – | 30 | 40 | 0 | 100 | 5 | Kochia plant response rating (kochia; [7]): 0; Kochia plant response rating (kochia; [8]): 100; Plant response rating (0 to 100), Kochia (kochia; Postemergence, 31 g ai/ha): 0; Plant response rating, Kochia (kochia; [9]): 0; Plant response rating, Kochia (kochia; [10]): 0; Plant response rating, Kochia (kochia; [11]): 0; Plant response rating, Kochia (kochia; [12]): 0; Kochia plant response rating (kochia; [13]): 100; Plant response rating (0 to 100), Nutsedge, Yellow (yellow nutsedge; Postemergence, 31 g ai/ha): 0; Plant response rating, Nutsedge, Yellow (yellow nutsedge; [9]): 0; Plant response rating, Nutsedge, Yellow (yellow nutsedge; [10]): 0; Plant response rating, Nutsedge, Yellow (yellow nutsedge; [11]): 60; Plant response rating, Crabgrass, Large (crabgrass; Postemergence, 125 g ai/ha): 80; Ragweed plant response rating (common ragweed; [8]): 5; Plant response rating (0 to 100), Ragweed (common ragweed; Postemergence, 31 g ai/ha): 0; Plant response rating (0 to 100), Ragweed (common ragweed; Postemergence, 62 g ai/ha): 0; Plant response rating, Ragweed (common ragweed; [10]): 0; Plant response rating, Ragweed (common ragweed; [11]): 0; Plant response rating, Ragweed (common ragweed; [12]): 0; Ragweed plant response rating (common ragweed; [13]): 50 |
| Cn1nc(C(F)(F)F)c(C[S+]([O-])c2cc(Br)cc[n+]2[O-])c1Cl (racemic) [Compound 35] | – | – | – | – | – | – | – | 50 | 80 | 60 | 80 | – | – | – | – | 60 | 90 | 0 | 100 | 0 | Ragweed plant response rating (common ragweed; [8]): 50; Plant response rating, Ragweed (common ragweed; [12]): 0; Ragweed plant response rating (common ragweed; [13]): 85 |
| Cn1nc(C(F)(F)F)c(CS(=O)(=O)c2ccc(Cl)c[n+]2[O-])c1OC(F)F [Compound 7] | – | – | – | 0 | 0 | 100 | 98 | 70 | 80 | 90 | 90 | 0 | 80 | 100 | 100 | – | – | – | – | – | – |

Reference: US20100298141A1, “SUBSTITUTED PYRIDINE N-OXIDE HERBICIDES” (E. I. DU PONT DE NEMOURS AND COMPANY, priority 2007, published 2010)
